Values quoted from earlier work in patent publication US20210065841A1, “METHOD FOR DETERMINING ANDROGEN AND ANTI-ANDROGEN EFFECTS ON SUBSTANCES” (priority 2018, published 2021).

Molecular target: T1, androgen receptor (Homo sapiens, UniProt P10275)
T1 sequence (P10275 1-920): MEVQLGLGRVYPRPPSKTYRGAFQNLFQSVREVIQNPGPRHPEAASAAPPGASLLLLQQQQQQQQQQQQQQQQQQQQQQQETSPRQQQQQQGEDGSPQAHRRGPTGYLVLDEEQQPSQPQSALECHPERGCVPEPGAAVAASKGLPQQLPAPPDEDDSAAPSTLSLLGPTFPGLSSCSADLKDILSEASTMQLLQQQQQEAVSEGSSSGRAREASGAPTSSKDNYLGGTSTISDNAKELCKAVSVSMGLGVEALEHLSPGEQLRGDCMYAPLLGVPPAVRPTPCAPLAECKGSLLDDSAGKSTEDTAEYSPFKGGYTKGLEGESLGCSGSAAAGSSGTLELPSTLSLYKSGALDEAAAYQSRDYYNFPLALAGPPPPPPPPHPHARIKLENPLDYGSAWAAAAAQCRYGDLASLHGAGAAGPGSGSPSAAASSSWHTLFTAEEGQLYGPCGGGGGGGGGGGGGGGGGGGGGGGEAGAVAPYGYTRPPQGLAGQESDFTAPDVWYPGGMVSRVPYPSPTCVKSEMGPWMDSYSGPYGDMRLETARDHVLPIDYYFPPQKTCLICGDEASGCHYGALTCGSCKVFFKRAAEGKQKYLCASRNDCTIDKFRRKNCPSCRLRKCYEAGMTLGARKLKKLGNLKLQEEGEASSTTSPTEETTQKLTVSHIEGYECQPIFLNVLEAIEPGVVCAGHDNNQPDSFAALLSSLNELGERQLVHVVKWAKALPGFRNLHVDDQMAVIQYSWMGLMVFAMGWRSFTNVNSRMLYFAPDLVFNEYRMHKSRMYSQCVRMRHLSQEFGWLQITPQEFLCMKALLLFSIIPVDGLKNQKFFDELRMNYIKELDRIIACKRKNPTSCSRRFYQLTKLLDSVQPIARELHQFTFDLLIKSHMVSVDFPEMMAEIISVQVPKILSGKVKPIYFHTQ
Details: previous reports

| Structure (SMILES) | androgen receptor antagonistic properties |
| --- | --- |
| CCCCC(CC)COC(=O)c1cc(Br)c(Br)c(Br)c1Br (centres unmarked) [TBB] | androgen receptor antagonistic properites |
| BrC1CCC(Br)C(Br)CCC1Br (centres unmarked) [TBCO] | androgen receptor antagonistic properites |
